This is an account of results in PubChem BioAssay (NCI).

Molecules are shown by their SMILES. Values joined by “and” are separate entries in the source; they are usually repeats but may differ in a detail not shown here. Equal entries are not always repeated.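 Growth conditions: 96-well plates. Treatment: test compound, 48 hours, 5 concentrations. Analysis: linear interpolation between bracketing concentrations; unreached endpoints set to highest concentration. Here, GI50 denotes the concentration required for 50% inhibition of growth. Definition used: TGI = concentration required for complete inhibition of growth.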

Among the test systems are COLO 205 colon; OVCAR-8 ovarian; MOLT-4 leukemia; UACC-257 melanoma; UACC-62 melanoma; HOP-62 NSCLC; SNB-19 CNS; NCI-H23 lung; IGROV1 ovarian; KM12 colon.
Test in all cases: NCI tumour cell line growth inhibition, 48 h

Take `CCOC(=O)c1c(OCC)[nH]c(=O)c(C(c2cccs2)c2c(O)c(C(=O)OCC)c(OCC)[nH]c2=O)c1O`: the TGI with COLO 205 colon worked out at 40.7 µM; in the assay on OVCAR-8 ovarian, 41.6 µM; in the assay on MOLT-4 leukemia, 22.5 µM; in the assay with UACC-257 melanoma, 36.9 µM; in the assay with UACC-62 melanoma it was 28.6 µM; in the assay on HOP-62 NSCLC, 35.8 µM. The TGI is 39.8 µM with SNB-19 CNS, 82.3 µM in the assay with NCI-H23 lung, 28.6 µM with IGROV1 ovarian and 42.9 µM in the assay on KM12 colon.

For the compound `Cc1nc2ccc(S(=O)(=O)Nc3nccs3)cc2c(=O)n1NS(=O)(=O)c1nccs1`, the TGI in the assay with COLO 205 colon, in the assay on OVCAR-8 ovarian, in the assay with MOLT-4 leukemia, in the assay with UACC-257 melanoma, with UACC-62 melanoma and in the assay on HOP-62 NSCLC was > 100 µM in each case. For the same compound, the TGI in the assay with SNB-19 CNS, with NCI-H23 lung, in the assay on IGROV1 ovarian and with KM12 colon was > 100 µM in each case.

On to `COC(=O)C1=C(OC)[C@H]2C#C/C=C\C#C[C@@H]3Nc4c(cc(O)c5c4C(=O)c4ccccc4C5=O)[C@]24O[C@@]34[C@H]1C`, for which the TGI is 0.014 µM in the assay on COLO 205 colon; < 0.01 µM in the assay on OVCAR-8 ovarian; < 0.01 µM in the assay on MOLT-4 leukemia; 0.0363 µM in the assay on UACC-257 melanoma; < 0.01 µM with UACC-62 melanoma; < 0.01 µM with HOP-62 NSCLC. The results for the TGI with NCI-H23 lung, with IGROV1 ovarian and in the assay with KM12 colon were < 0.01 µM, 0.167 µM and 0.0475 µM, respectively.

On to `COc1ccc(CNc2nc(NC3CCCCC3)nc(NC3CCCCC3)n2)cc1`, for which the TGI in the assay on COLO 205 colon was 20.9 µM; in the assay with OVCAR-8 ovarian it was > 100 µM; in the assay with MOLT-4 leukemia, > 100 µM; in the assay on UACC-257 melanoma, > 100 µM; in the assay with UACC-62 melanoma, 50.9 µM; with HOP-62 NSCLC it was > 100 µM. The TGI in the assay on SNB-19 CNS was > 100 µM; with NCI-H23 lung, 12.6 µM; with IGROV1 ovarian, 61.6 µM; in the assay with KM12 colon it was 3.84 µM.

Consider `CN(C)CCCNc1ccc2ncn3c4ccc(O)cc4c(=O)c1c23`, for which the TGI was 15.3 µM in the assay on COLO 205 colon; 11.7 µM in the assay with OVCAR-8 ovarian; 10.1 µM with MOLT-4 leukemia; 24.5 µM in the assay with UACC-257 melanoma; 13.5 µM in the assay on UACC-62 melanoma; 8.97 µM in the assay with HOP-62 NSCLC. The TGI in the assay on SNB-19 CNS worked out at 20.1 µM; in the assay with NCI-H23 lung, 10.7 µM; in the assay on IGROV1 ovarian, 10.5 µM; with KM12 colon, 16.7 µM.

For the compound `O=C(CBr)c1ccc2cc(Br)c3ccccc3c2c1`, the TGI in the assay with COLO 205 colon was > 100 µM; with OVCAR-8 ovarian, 55.8 µM; in the assay on MOLT-4 leukemia, 37 µM; in the assay on UACC-257 melanoma it was 49.9 µM; in the assay with UACC-62 melanoma, 29.8 µM; in the assay on HOP-62 NSCLC, > 100 µM. Besides, the TGI with SNB-19 CNS amounted to 64.6 µM; in the assay with NCI-H23 lung, 35.3 µM; in the assay with IGROV1 ovarian, 62.4 µM; in the assay on KM12 colon, 44.1 µM.

Turning to `C[n+]1c2ccccc2c(NC(CCCN=C(N)N)C(=O)O)c2ccccc21` (stereo not given), the TGI with COLO 205 colon, with OVCAR-8 ovarian, in the assay with MOLT-4 leukemia, in the assay on UACC-257 melanoma, with UACC-62 melanoma and in the assay on HOP-62 NSCLC was > 100 µM each time. Besides, the TGI in the assay on SNB-19 CNS, with NCI-H23 lung, with IGROV1 ovarian and in the assay with KM12 colon was > 100 µM each time.

As to `O=C(N[C@@H](Cc1coc2ccccc12)B(O)O)[C@@H]1C[C@H]2CC[C@@H]1O2`, the GI50 in the assay on COLO 205 colon is 23.1 µM; in the assay on OVCAR-8 ovarian, 80.8 µM; with MOLT-4 leukemia, 2.96 µM; in the assay with UACC-257 melanoma, 6.28 µM; in the assay on UACC-62 melanoma, 5.29 µM; in the assay on HOP-62 NSCLC, 3.65 µM. Further, the GI50 was 4.98 µM in the assay with SNB-19 CNS, 9.18 µM in the assay with NCI-H23 lung, 16.1 µM in the assay with IGROV1 ovarian and 11.4 µM with KM12 colon. For the same compound, the TGI in the assay on COLO 205 colon is > 100 µM; with OVCAR-8 ovarian, > 100 µM; in the assay with MOLT-4 leukemia, 48 µM; in the assay with UACC-257 melanoma, > 100 µM; in the assay with UACC-62 melanoma, 55.2 µM; in the assay on HOP-62 NSCLC, 43.6 µM. Further, the TGI in the assay on SNB-19 CNS was > 100 µM; with NCI-H23 lung, > 100 µM; with IGROV1 ovarian, > 100 µM; in the assay with KM12 colon, 57.9 µM.

For `COc1ccc(/C=N/n2cnc3c(c2=O)SC(=C(C#N)C#N)N3c2ccccc2)cc1`, the TGI in the assay with COLO 205 colon, in the assay on OVCAR-8 ovarian, in the assay on MOLT-4 leukemia, with UACC-257 melanoma, in the assay with UACC-62 melanoma and in the assay on HOP-62 NSCLC was > 100 µM in each case. The TGI in the assay with SNB-19 CNS, with NCI-H23 lung, in the assay on IGROV1 ovarian and with KM12 colon was > 100 µM each time.

Take `CCC1CC(O)c2c(O)c3c(c(O)c2C1O)C(=O)c1cccc(O)c1C3=O` (stereo not given) (tested in a mixture with another compound): the TGI was 0.0939 µM and 0.019 µM in the assay with COLO 205 colon; 0.181 µM and 1.19 µM in the assay on OVCAR-8 ovarian; 0.0755 µM and 0.0479 µM in the assay on MOLT-4 leukemia; 0.0941 µM and 0.0404 µM in the assay with UACC-257 melanoma; 0.0396 µM in the assay on UACC-62 melanoma; 0.197 µM and 1.79 µM in the assay with HOP-62 NSCLC. Besides, the TGI in the assay on SNB-19 CNS is 0.929 µM and 1.34 µM; in the assay with NCI-H23 lung, 0.0795 µM and 0.186 µM; with IGROV1 ovarian, 0.239 µM and 1.02 µM; in the assay with KM12 colon, 0.147 µM and 0.0175 µM. Moreover, the GI50 with UACC-257 melanoma is 0.0101 µM.

For `C=CCCC1(C)CCCNC1=S` (stereo not given), the TGI with COLO 205 colon, in the assay with OVCAR-8 ovarian, in the assay with MOLT-4 leukemia, in the assay on UACC-257 melanoma, with UACC-62 melanoma and with HOP-62 NSCLC was > 100 µM in each case. Moreover, the TGI in the assay on SNB-19 CNS, with NCI-H23 lung, in the assay on IGROV1 ovarian and in the assay on KM12 colon was > 100 µM each time.
